{"source": "paper PMC6920875", "about": "“Dithiocarbamate as a Valuable Scaffold for the Inhibition of Metallo-β-Lactmases” (Biomolecules, 2019)", "key": {"ImiS [1]": {"molecular_target": "T1, ImiS (Aeromonas veronii, UniProt O31272)", "T1 construct": "made in house; host or cells: E. coli BL21 (DE3), plasmid pET-26b-ImiS", "experiment": "Inhibition kinetics, Lineweaver–Burk plots", "assay_type": "biochemical, Aeromonas veronii bv. sobria", "experimental": "(§1) The dithiocarbamates, MβLs and substrates samples were prepared with 30 mM Tris, pH 7.0. […] Enzymes and inhibitors were pre-incubated for 5 min before adding substrate. […] The IC50 values were nonlinearly fitted by plotting the average percentage inhibition against inhibitor concentration. The inhibition modes of DC1 to ImiS, NDM-1 and L1 were assayed by generating Lineweaver–Burk plots, and Ki values were obtained by fitting initial velocity versus substrate concentration at each inhibitor concentration, using SigmaPlot 12.0 (Systat Software Inc., San Jose, CA, USA).\nTo further identify the inhibition mode of the DCs against MβLs, we performed inhibition kinetics of NDM-1, ImiS and L1 by DC1, at different concentrations, with different substrate concentrations. […] Enzyme and inhibitors were pre-incubated for 5 min before starting the kinetic assays. All experimental hydrolytic rates of substrates were determined in triplicate. The inhibition mode of dithiocarbamates on MβLs was identified by generating Lineweaver–Burk plots, and Ki values were gained by fitting the initial velocity versus substrate concentration at each inhibitor concentration, using SigmaPlot 12.0."}, "ImiS [2]": {"molecular_target": "T1, ImiS", "experiment": "Inhibitor reversibility, activity recovery after rapid 100-fold dilution", "assay_type": "biochemical, Aeromonas veronii bv. sobria", "conditions": "5.0 μM enzyme, 0.7 μM inhibitor, 10 min pre-incubation", "experimental": "(§2) It can be observed in Figure 4d–f that the Q value remains almost unchanged in the presence or absence of inhibitors, likely because the formation of the enzyme-inhibitor complex (EI), that slowed down substrate hydrolysis, was reversible. […] We assayed the binding reversibility of DC1 to MβLs by measuring the enzymatic activity recovery after a large, rapid dilution of the MβL-DC1 complex.\n(§3) Determination of inhibitor reversibility\n(§4) NDM-1, ImiS and L1 were incubated at a concentration of 1.3, 5.0 and 5.8 μM, which is 100-fold over the concentration required for the activity assay, with DC1 at a concentration of 1.5, 0.7 and […]\n(§5) After 10 minutes pre-incubation, the recovery of enzymatic activity was determined after rapid and large dilution (100-fold) with the reaction […]\n(§6) Figure S2. Recovery of NDM-1 (a), ImiS (b) and L1 (c) activity after rapid dilution of the enzyme-inhibitor complex. The curve in black refers to the control sample pre-incubated and diluted in the absence of inhibitor. Curves in red refer to MβLs pre-incubated with DC1. […]"}, "NDM-1": {"molecular_target": "T2, NDM-1 (Klebsiella pneumoniae, UniProt C7C422)", "T2 construct": "made in house; host or cells: E. coli BL21 (DE3), plasmid pET26b-NDM-1", "T2 sequence (C7C422 29-270 limits assumed)": "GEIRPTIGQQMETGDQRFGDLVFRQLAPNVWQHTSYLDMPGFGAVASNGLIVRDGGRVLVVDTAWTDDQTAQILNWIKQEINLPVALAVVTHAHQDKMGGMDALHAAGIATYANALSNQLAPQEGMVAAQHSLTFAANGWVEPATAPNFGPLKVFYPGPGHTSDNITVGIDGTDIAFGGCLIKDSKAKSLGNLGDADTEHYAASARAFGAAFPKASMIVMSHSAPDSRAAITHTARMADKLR", "experiment": "Inhibitor reversibility, activity recovery after rapid 100-fold dilution", "assay_type": "biochemical", "conditions": "1.3 μM enzyme, 10 min pre-incubation", "experimental": "as §2, §3, §4, §5, §6"}, "L1": {"molecular_target": "T3, L1 (Stenotrophomonas maltophilia, UniProt P52700)", "T3 construct": "made in house; host or cells: E. coli BL21 (DE3), plasmid pET-26b-L1", "T3 sequence (P52700 34-290)": "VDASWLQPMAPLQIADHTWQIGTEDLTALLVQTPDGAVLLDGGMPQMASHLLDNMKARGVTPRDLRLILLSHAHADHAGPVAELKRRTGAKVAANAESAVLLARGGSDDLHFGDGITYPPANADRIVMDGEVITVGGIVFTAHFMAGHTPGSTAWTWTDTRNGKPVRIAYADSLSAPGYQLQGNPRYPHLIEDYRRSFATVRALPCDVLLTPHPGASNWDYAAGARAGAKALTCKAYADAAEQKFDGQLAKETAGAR", "experiment": "Inhibitor reversibility, activity recovery after rapid 100-fold dilution", "assay_type": "biochemical", "conditions": "5.8 μM enzyme, 25.3 μM inhibitor, 10 min pre-incubation", "experimental": "as §2, §3, §4, §5, §6"}, "[3]": {"test_system": "mouse fibroblast cells (L-929)", "experiment": "Cytotoxicity assay (MTT)", "assay_type": "cell-based", "conditions": "concentration as high as 250 μM, 48 h", "experimental": "The cytotoxicity assays were performed to evaluate the toxicity of DC1, DC3, DC7 and DC9 in mouse fibroblast cells (L-929). The cells were seeded into 96-well plates at a cell density of 1.0 × 10^4 cells/well, in 100 μL of culture medium and maintained for 24 h. Then, the inhibitors with working concentrations (15.6, 31.25, 62.5, 125, 250, and 500 μM) were added to the 96-well plates and incubated for another 48 h. Three wells containing only cells were suspended in a mixture solution of 98 μL complete medium, as controls for cell viability without inhibitors. Three wells containing only the complete medium were used as blank controls. Following that, the medium was removed, and 100 μL of fresh culture medium and 10 μL MTT were added to each well. After incubation for 4 h, the trays were then vigorously shaken to solubilize the formed product, and the absorbance, at a wavelength of 490 nm, was read on a microplate reader and analyzed. All experiments were conducted in triplicate, and the data are expressed as mean ± standard deviation.\nThe potential toxicity of dthiocarbamates DC1, DC3, DC7 and DC9 as representatives was assayed using the mouse fibroblast cells (L929) treated with different concentrations of inhibitors (15.625, 31.25, 62.5, 125, 250 and 500 μM)."}, "ImiS [4]": {"molecular_target": "T1, ImiS", "experiment": "biochemical", "set-up": "species or system Aeromonas veronii bv. sobria", "conditions": "read-out: inhibition against ImiS", "experimental": "as §1\nTo evaluate the inhibitory activity of the dithiocarbamates, we over-expressed and purified MβLs NDM-1, VIM-2 and IMP-1 (B1), ImiS (B2), and L1 (B3) from three subclasses as previously reported. The inhibition experiments were performed with an Agilent UV8453 spectrometer. […] The concentrations of inhibitors were varied between 0 and 200 μM. The initial reaction rates were determined in the absence and presence of inhibitors in triplicate, and the generated average values were recorded."}}}
{"smiles": "O=C(NNC(=S)[S][K])c1ccccc1O", "note": "[DC1]", "values": [{"measurement": "inhibition mode against ImiS", "setting": "ImiS [1]; Lineweaver–Burk plots", "value": "partially mixed inhibition"}, {"measurement": "Ki", "setting": "ImiS [1]; read-out: Ki against ImiS, imipenem 20-120 µM, inhibitor 0-20 μM, SigmaPlot fit", "value": 140, "unit": "nM"}, {"measurement": "melting point", "value": "264 to 265", "unit": "°C"}, {"measurement": "reversibility, recovery of ImiS activity after rapid dilution", "setting": "ImiS [2]", "value": "reversible inhibitor"}, {"measurement": "reversibility, recovery of NDM-1 activity after rapid dilution", "setting": "NDM-1", "value": "reversible inhibitor"}, {"measurement": "reversibility, recovery of L1 activity after rapid dilution", "setting": "L1", "value": "reversible inhibitor"}, {"measurement": "survival rate of L929 mouse cells", "setting": "[3]", "value": "higher than 80%"}, {"measurement": "inhibition at 40 µM", "setting": "ImiS [4]", "value": "> 90", "unit": "%"}]}
